Several values for one entry are separate records, joined by “and”; a condition that tells them apart may be missing. Equal entries are not always repeated. Strand notation (5' to 3'): a small letter for the sugar, then the base; units joined by * are phosphorothioate-linked, units joined directly phosphodiester-linked; [ ] holds rarer units or linkages, { } end groups; capitals alone tell only the bases. k = constrained ethyl (cEt); [5mC] = 5-methylcytosine; d = 2'-deoxy (DNA)
Assays:
[1] = Tolerability in Balb/c mice, plasma chemistry markers (Example 11); type: in vivo; conditions: 50 mg/kg subcutaneously twice a week for four weeks
Outline: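 Male Balb/c mice aged 4-6 weeks received 50 mg/kg modified oligonucleotide subcutaneously twice weekly for four weeks (8 doses), with a PBS control group. Plasma chemistry markers were assessed after euthanasia on day 26, 24 hours after the final dose.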

Yap1 mRNA = test: Antisense inhibition of human Yap1 in SNU-449 cells by modified oligonucleotides, single dose (Example 5, RTS36584); type: cell-based
Outline: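 Values are Yap1 mRNA as percent of untreated control cells, measured by quantitative real-time RT-PCR using RTS36584 and normalised to total RNA by RIBOGREEN. Cells were SNU-449, dosed by free uptake at 2,000 nM for approximately 48 hours.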

Row | Substance | ALT [1] [U/L] | AST [1] [U/L] | BUN [1] [mg/dL] | TBIL [1] [mg/dL] | YAP1 (% UTC) (Yap1 mRNA; Table 39, SNU-449 cells, 10,000 cells per well, free uptake, 2,000 nM oligonucleotide, approx. 48 hours, RTS36584, normalized to RIBOGREEN, Yap1 mRNA relative to untreated control) | YAP1 (% UTC) (Yap1 mRNA; Table 40 (separate experiment), SNU-449 cells, 10,000 cells per well, free uptake, 2,000 nM oligonucleotide, approx. 48 hours, RTS36584, normalized to RIBOGREEN, Yap1 mRNA relative to untreated control) | YAP1 (% UTC) (Yap1 mRNA; Table 41, SNU-449 cells, 10,000 cells per well, free uptake, 2,000 nM modified oligonucleotide, approximately 48 hours, RTS36584, normalized to RIBOGREEN, Yap1 mRNA relative to untreated control cells) | YAP1 (% UTC) (Yap1 mRNA; Table 42 (separate experiment), SNU-449 cells, 10,000 cells per well, free uptake, 2,000 nM modified oligonucleotide, approximately 48 hours, RTS36584, normalized to RIBOGREEN, Yap1 mRNA relative to untreated control cells) | YAP1 (% UTC) (Yap1 mRNA; Table 43 experiment, SNU-449 cells, 10,000 cells per well, free uptake, 2,000 nM, approximately 48 hours, RTS36584, Yap1 mRNA normalized to RIBOGREEN, relative to untreated control cells) | YAP1 (% UTC) (Yap1 mRNA; Table 44 experiment, SNU-449 cells, 10,000 cells per well, free uptake, 2,000 nM, approximately 48 hours, RTS36584, Yap1 mRNA normalized to RIBOGREEN, relative to untreated control cells) | YAP1 (% UTC) (Yap1 mRNA; Table 45, Yap1 mRNA as percent of untreated control, SNU-449 cells, single dose) | YAP1 (% UT) (Yap1 mRNA; Table 46, Yap1 mRNA as percent of untreated control, SNU-449 cells, single dose) | YAP1 (% UT) (Yap1 mRNA; Table 48, Yap1 mRNA level relative to untreated control, modified oligonucleotides targeting SEQ ID NO.: 1 and 2) | YAP1 (% UT) (Yap1 mRNA; Table 49, Yap1 mRNA level relative to untreated control, modified oligonucleotides targeting SEQ ID NO.: 1 and 2) | YAP1 (% UT) (Yap1 mRNA; Table 50, Yap1 mRNA remaining as percent of untreated control (UT), SNU-449 cells, single dose) | YAP1 (% UT) (Yap1 mRNA; Table 51, Yap1 mRNA remaining as percent of untreated control (UT), SNU-449 cells, single dose) | YAP1 (% UT) (Yap1 mRNA; Table 52, Yap1 mRNA, modified oligonucleotides targeting SEQ ID NO: 1 and 2) | YAP1 (% UT) (Yap1 mRNA; Yap1 mRNA, percent of untreated control, modified oligonucleotides targeting SEQ ID NO: 1 and 2, Table 47)
1 | 715487 (kA*kT*kT*dA*d[5mC]*dT*dT*d[5mC]*dA*dT*dA*dG*d[5mC]*kT*kT*kA) [compound 715487] | 59 | 81 | 16 | 0.18 |  |  |  |  |  |  |  |  |  |  |  |  |  | 
2 | 958499 (kA*kT*kT*dA*dG*dA*dG*dT*dA*dT*dG*dT*dG*kG*k[5mC]*kA) [Compound 958499] |  |  |  |  | 8 | 15 | 14 | 15 | 14 | 9 | 15 | 16 | 15 | 13 | 12 | 9 | 14 | 17 % UT and 10 % UT

Reference: patent publication US11214803B2, “Modulators of YAP1 expression” (Ionis Pharmaceuticals, Inc., priority 2019, dated 2022)
